ChEMBL document CHEMBL1201862, “PubChem BioAssay data set” (2004)
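Five compound concentrations were applied to cells in 96-well plates for 48 hours; endpoints were derived by simple linear interpolation of the resulting dose-response curve. GI50 marks 50% less growth.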 Activity calls are given as the source filed them. Cut-off read from the data, not from the text of the source: active = GI50 up to about 1.1 µM and inactive = higher.

What was measured:
Test in all cases: inhibition of tumour cell growth, NCI panel, 48 h
[1] = test system: A549
[2] = test system: ACHN
[3] = test system: CCRF-CEM
[4] = test system: COLO 205
[5] = test system: HCC 2998
[6] = test system: HCT-15
[7] = test system: IGROV-1
[8] = test system: K562
[9] = test system: LOX IMVI
[10] = test system: NCI-H522
[11] = test system: OVCAR-3
[12] = test system: OVCAR-5
[13] = test system: RPMI-8226
[14] = test system: RXF 393
[15] = test system: SK-MEL-5
[16] = test system: SN12C
[17] = test system: SR
[18] = test system: UACC-62
[19] = test system: UO-31

SMILES | GI50 [1] | GI50 [2] | GI50 [3] | GI50 [4] | GI50 [5] | GI50 [6] [µM] | GI50 [7] | GI50 [8] | GI50 [9] | GI50 [10] | GI50 [11] | GI50 [12] | GI50 [13] | GI50 [14] | GI50 [15] | GI50 [16] | GI50 [17] | GI50 [18] | GI50 [19]
CC[P+](C)(Cc1ccccc1)c1ccccc1 (stereo not given) | > 100 µM (inactive) | > 100 µM (inactive) | > 100 µM (inactive) | 69.5 µM (inactive) | > 100 µM (inactive) | > 100 | > 100 µM (inactive) | > 100 µM (inactive) | > 100 µM (inactive) | 44.2 µM (inactive) | 58.5 µM (inactive) | > 100 µM (inactive) | 57.4 µM (inactive) | > 100 µM (inactive) | 51.3 µM (inactive) | > 100 µM (inactive) | > 100 µM (inactive) | > 100 µM (inactive) | > 100 µM (inactive)
CC(=O)c1cccc(C)c1C(=O)O | > 100 µM (inactive) | > 100 µM (inactive) | > 100 µM (inactive) | > 100 µM (inactive) | > 100 µM (inactive) | > 100 | > 100 µM (inactive) | > 100 µM (inactive) | > 100 µM (inactive) | > 100 µM (inactive) | > 100 µM (inactive) | > 100 µM (inactive) | > 100 µM (inactive) | > 100 µM (inactive) | > 100 µM (inactive) | > 100 µM (inactive) | > 100 µM (inactive) | > 100 µM (inactive) | > 100 µM (inactive)
O=C1C=C(c2ccccc2)NC1(c1ccccc1)c1cc(-c2ccccc2)[nH]c1-c1ccccc1 (stereo not given) | > 100 µM (inactive) | > 100 µM (inactive) | > 100 µM (inactive) | > 100 µM (inactive) | > 100 µM (inactive) | > 100 | > 100 µM (inactive) | > 100 µM (inactive) | – | – | > 100 µM (inactive) | – | – | 0.182 µM (active) | – | > 100 µM (inactive) | > 100 µM (inactive) | > 100 µM (inactive) | > 100 µM (inactive)
CC1=C(NC(=O)C(=O)NNC(=O)c2ccncc2)C(=O)c2ccccc2C1=O | 13.6 µM (inactive) | 16.1 µM (inactive) | 20 µM (inactive) | 17.3 µM (inactive) | 16.9 µM (inactive) | 12.4 | 12.7 µM (inactive) | 24.1 µM (inactive) | 3.66 µM (inactive) | 12.4 µM (inactive) | 4.08 µM (inactive) | 17 µM (inactive) | 19.5 µM (inactive) | 15.4 µM (inactive) | 1.98 µM (inactive) | 11.8 µM (inactive) | 9.12 µM (inactive) | 2.52 µM (inactive) | 18 µM (inactive)
CCCCOC(=O)/C(CC(=O)C=C(C)C)=N\NS(=O)(=O)c1ccc(C)cc1 | > 100 µM (inactive) | > 100 µM (inactive) | > 100 µM (inactive) | 46.1 µM (inactive) | > 100 µM (inactive) | 62.4 | > 100 µM (inactive) | > 100 µM (inactive) | 71.3 µM (inactive) | 41.8 µM (inactive) | > 100 µM (inactive) | > 100 µM (inactive) | > 100 µM (inactive) | > 100 µM (inactive) | > 100 µM (inactive) | > 100 µM (inactive) | 27.7 µM (inactive) | > 100 µM (inactive) | > 100 µM (inactive)
O=C(OCc1ccccc1)c1ccccc1-c1c2ccc(=O)cc-2oc2cc(OCc3ccccc3)ccc12 | 6.7 µM (inactive) | 6.93 µM (inactive) | 3.61 µM (inactive) | 18.6 µM (inactive) | 19.6 µM (inactive) | 9.84 | 11 µM (inactive) | 3.18 µM (inactive) | 6.43 µM (inactive) | – | 17.6 µM (inactive) | 19.8 µM (inactive) | 5.48 µM (inactive) | 14.4 µM (inactive) | 5.86 µM (inactive) | 16.9 µM (inactive) | 4.49 µM (inactive) | 10.2 µM (inactive) | 6.12 µM (inactive)
O=C1C(Cl)=C(Cl)C(=O)N1c1cccc(C(F)(F)F)c1 | > 100 µM (inactive) | > 100 µM (inactive) | > 51.9 µM (inactive) | > 79.3 µM (inactive) | > 100 µM (inactive) | > 100 | > 100 µM (inactive) | > 54.5 µM (inactive) | > 100 µM (inactive) | 12.1 µM (inactive) | > 100 µM (inactive) | > 100 µM (inactive) | > 65.6 µM (inactive) | 34 µM (inactive) | > 100 µM (inactive) | > 100 µM (inactive) | 35.9 µM (inactive) | > 100 µM (inactive) | > 100 µM (inactive)
Cn1c(=O)c2c(nc(C[N+]3([O-])CCOCC3)n2C)n(C)c1=O | > 100 µM (inactive) | > 100 µM (inactive) | > 100 µM (inactive) | > 100 µM (inactive) | > 100 µM (inactive) | > 100 | > 100 µM (inactive) | > 100 µM (inactive) | > 100 µM (inactive) | > 100 µM (inactive) | > 100 µM (inactive) | > 100 µM (inactive) | > 100 µM (inactive) | > 100 µM (inactive) | > 100 µM (inactive) | > 100 µM (inactive) | > 100 µM (inactive) | > 100 µM (inactive) | > 100 µM (inactive)
Oc1nnc2c(-c3ccccc3)n[nH]c2n1 | 14.2 µM (inactive) | > 100 µM (inactive) | > 100 µM (inactive) | > 100 µM (inactive) | > 100 µM (inactive) | > 100 | 94.4 µM (inactive) | > 100 µM (inactive) | > 100 µM (inactive) | > 100 µM (inactive) | > 100 µM (inactive) | > 100 µM (inactive) | > 100 µM (inactive) | > 100 µM (inactive) | – | > 100 µM (inactive) | > 100 µM (inactive) | > 100 µM (inactive) | > 100 µM (inactive)
O=C(O)c1ccc(Nc2nc3nn(Cc4ccccc4)cc3c(=O)s2)cc1 | > 100 µM (inactive) | > 100 µM (inactive) | > 100 µM (inactive) | > 100 µM (inactive) | > 100 µM (inactive) | > 100 | > 100 µM (inactive) | > 100 µM (inactive) | > 100 µM (inactive) | > 100 µM (inactive) | > 100 µM (inactive) | > 100 µM (inactive) | > 100 µM (inactive) | > 100 µM (inactive) | > 100 µM (inactive) | > 100 µM (inactive) | > 100 µM (inactive) | – | > 100 µM (inactive)
Cc1ccc(C2OC(COCc3ccc(Cl)cc3)C(OCc3ccc(Cl)cc3)C2O)cc1 (stereo not given) | 9.42 µM (inactive) | 15.1 µM (inactive) | – | 22.8 µM (inactive) | 19.3 µM (inactive) | 7.85 | 8.89 µM (inactive) | 4.42 µM (inactive) | – | – | 10.7 µM (inactive) | > 100 µM (inactive) | 4.76 µM (inactive) | 3.19 µM (inactive) | 12.1 µM (inactive) | 3.65 µM (inactive) | 3.22 µM (inactive) | 4.42 µM (inactive) | 6.76 µM (inactive)
OC(c1ccccc1Br)(c1ccccc1Br)C(F)(F)F | 34.1 µM (inactive) | 20.1 µM (inactive) | – | 18.2 µM (inactive) | 0.322 µM (active) | 30.4 | 40.4 µM (inactive) | – | 20.9 µM (inactive) | 11.6 µM (inactive) | 26.9 µM (inactive) | 25.4 µM (inactive) | – | 19.6 µM (inactive) | – | 19.1 µM (inactive) | 24.6 µM (inactive) | 26.8 µM (inactive) | 26.7 µM (inactive)
OCC(O)C(OC1OC(CO)C(O)C(O)C1O)c1nn(-c2ccc(Cl)cc2)c2nc3cc(Cl)ccc3nc12 (stereo not given) | – | > 100 µM (inactive) | > 100 µM (inactive) | – | > 100 µM (inactive) | > 100 | – | > 100 µM (inactive) | > 100 µM (inactive) | > 100 µM (inactive) | > 100 µM (inactive) | > 100 µM (inactive) | > 100 µM (inactive) | > 100 µM (inactive) | – | > 100 µM (inactive) | > 100 µM (inactive) | > 100 µM (inactive) | > 100 µM (inactive)
Oc1cccc(C2SCc3nc4ccccc4n32)c1 (stereo not given) | 54.7 µM (inactive) | 33.8 µM (inactive) | 48.2 µM (inactive) | > 100 µM (inactive) | > 100 µM (inactive) | – | – | 16.9 µM (inactive) | – | 38.3 µM (inactive) | 45.6 µM (inactive) | 26.2 µM (inactive) | 39.3 µM (inactive) | 78.7 µM (inactive) | 14.8 µM (inactive) | 82.2 µM (inactive) | 48.8 µM (inactive) | 77.1 µM (inactive) | 35.6 µM (inactive)
CC1=C2C(=CC(C)(CO)C2O)C(=O)C(C)(O)C12CC2 (stereo not given) | 0.00254 µM (active) | 0.00152 µM (active) | 0.00201 µM (active) | 0.00353 µM (active) | 0.00213 µM (active) | 0.00197 | 0.00721 µM (active) | 0.00279 µM (active) | 0.00161 µM (active) | 0.000776 µM (active) | 0.00493 µM (active) | 0.00673 µM (active) | 0.895 µM (active) | 0.00163 µM (active) | 0.00108 µM (active) | 0.00705 µM (active) | 0.00347 µM (active) | 0.00286 µM (active) | 0.00457 µM (active)
Cc1c(C(=O)/C=C/c2ccc3c(c2)OCO3)[n+]([O-])c2ccccc2[n+]1[O-] | 32.7 µM (inactive) | 35.6 µM (inactive) | 32.9 µM (inactive) | 27.7 µM (inactive) | 23.1 µM (inactive) | – | 34.6 µM (inactive) | 33 µM (inactive) | 26.1 µM (inactive) | 15.3 µM (inactive) | 24.2 µM (inactive) | 27.8 µM (inactive) | 27 µM (inactive) | 23 µM (inactive) | – | 23 µM (inactive) | 30.3 µM (inactive) | 27.2 µM (inactive) | 28 µM (inactive)
